How the values were obtained:
[1] = target: T1, GSPT2 (Homo sapiens, UniProt Q8IYD1+Q96SW2); assay: Western blot analysis of GSPT1 and GSPT2 degradation in RKO WT or CRBN KO cells; assay type: cell-based
T1 construct: endogenous in cells; host or cells: RKO WT or RKO CRBN KO
Procedure: (§1) (A) Structure of FL2-14 comprising fluorosulfate scaffold FL2 (black) and tail group modification 14 (blue). (B) DMSO-normalized quantitative proteomics after 16 h of treatment with FL2-14 (10 μM) in RKO WT (n = 2). […] (C) Structural alignment of AlphaFold models of GSPT1 (AF-P15170-F1-model_v4 in gray) and GSPT2 (AF-Q8IYD1-F1-model_v4 in blue). (D) Validation of GSPT2 degradation by FL2-14. […] (E) Dose–response of FL2-14 in RKO and HEK293T cells. Cells were treated with the FL2-14 (0 to 10 μM) for 16 h. (F) Degradation of GSPT2^WT or GSPT2^G566N. […]
Analysis of targeted protein degradation of GSPT1 and GSPT2 via western blot For degradation assays 800 000 RKO WT or CRBN KO cells were seeded 1 day prior to the treatment in 6 well plates.
Then, cells were treated with 10 µM of the compounds for 16 hours if not otherwise stated. Cells were harvested, lysed for 30 min at 37°C in lysis buffer (1x PBS, 1% SDS, 2 mM MgCl2, 1x Halt Protease inhibitor cocktail, 50 Units Benzonase) and cleared for 30 min at 18 000 x g at 4°C. Protein concentration was determined with the Pierce 660 nm Protein Assay using the Ionic Detergent Compatibility Reagent (Thermo Scientific). 10 µg total proteome were subjected to western blot analysis by adding 4x Bolt™ LDS Sample Buffer (Thermo Scientific). Samples were boiled at 95°C for 5 min and subjected to gel electrophoresis with Bolt™ 4‐12% Bis‐Tris Plus Gels (Thermo Scientific) with Bolt™ MES SDS Running Buffer (Thermo Scientific). Membranes were blocked with 5% fat‐free milk in TBS‐T (20 mM Tris, 150 mM NaCl, 0.1% Tween, pH 7.6) for 1 h at room temperature and washed subsequently 3x 5 min with TBS‐
T. Afterwards, they were incubated for 1 h at room temperature with either GSPT1 antibody (Abcam ab49878, rabbit, […]
rabbit, 1:10 000), CRBN (Cell Signaling Technologies, CST71810S, rabbit, 1:1000), or GAPDH (SantaCruz sc‐47724, mouse, 1:1 000). Followed by washing 3x 5 min with TBS‐T and incubation for 1 h at room temperature with either Goat ANTI‐RABBIT IgG StarBright™ Blue 700 (Bio‐Rad, #12004162, 1:10 000) or Goat anti‐Mouse IgG (H+L) Cross‐ Adsorbed Secondary Antibody, DyLight™ 800 (Bio‐Rad, STAR117D800GA, 1:10 000) fluorophore‐conjugated

[2] = CellTiter-Glo cytotoxicity of selected compounds (manual, 72 h); assay type: cell-based, human; conditions: human, up to 10 μM
Procedure: Assessment of gene expression and essentiality in RKO WT
Fluorescence Polarization‐based competition assay
EC50 values were calculated with GraphPad Prism […]
the FP value of free tracer. […]
instructions. […] For the screening of the whole SuFEx
Data visualization was done with seaborn
(https://seaborn.pydata.org, version 0.12.2). […]
compounds. (F) Analysis of the cytotoxicity of compounds with treatment‐centric features related to FL2‐ […]
Synthesis and in Vitro Evaluation of Diverse Heterocyclic Diphenolic Compounds as Inhibitors of DYRK1A.
(7) Zhang, J.‐H.; Chung, T. D. Y.; Oldenburg, K. R. A Simple Statistical Parameter for Use in Evaluation and Validation of High Throughput Screening Assays. SLAS Discov.

[3] = target: T1, GSPT2; assay: Western blot analysis of GSPT2 degradation in HEK293T cells; assay type: cell-based; conditions: 0 to 10 μM, 16 h
Procedure: as §1, with “Figure 3 FL2-14 is a selective GSPT2 molecular glue degrader. (A)” for “(A)”
spectra were searched against the human proteome (Canonical, reviewed, 20 304 sequences) and appended known contaminants and streptavidin, with a maximum of two allowable miscleavage sites. The search was performed with full tryptic digestion. […] Peptide spectrum matches (PSMs) with precursor isolation interference values of > 70, average TMTpro reporter ion S/N < 10 and SPS Mass Matches < 65 % were excluded from quantification. Both unique and razor peptides were used for TMT quantification. […] Protein ratios are directly calculated from the grouped protein abundances using an ANOVA hypothesis test. Adjusted p‐values are calculated using the Benjamini‐Hochberg method. […]

T1 sequence (Q8IYD1 whole entry): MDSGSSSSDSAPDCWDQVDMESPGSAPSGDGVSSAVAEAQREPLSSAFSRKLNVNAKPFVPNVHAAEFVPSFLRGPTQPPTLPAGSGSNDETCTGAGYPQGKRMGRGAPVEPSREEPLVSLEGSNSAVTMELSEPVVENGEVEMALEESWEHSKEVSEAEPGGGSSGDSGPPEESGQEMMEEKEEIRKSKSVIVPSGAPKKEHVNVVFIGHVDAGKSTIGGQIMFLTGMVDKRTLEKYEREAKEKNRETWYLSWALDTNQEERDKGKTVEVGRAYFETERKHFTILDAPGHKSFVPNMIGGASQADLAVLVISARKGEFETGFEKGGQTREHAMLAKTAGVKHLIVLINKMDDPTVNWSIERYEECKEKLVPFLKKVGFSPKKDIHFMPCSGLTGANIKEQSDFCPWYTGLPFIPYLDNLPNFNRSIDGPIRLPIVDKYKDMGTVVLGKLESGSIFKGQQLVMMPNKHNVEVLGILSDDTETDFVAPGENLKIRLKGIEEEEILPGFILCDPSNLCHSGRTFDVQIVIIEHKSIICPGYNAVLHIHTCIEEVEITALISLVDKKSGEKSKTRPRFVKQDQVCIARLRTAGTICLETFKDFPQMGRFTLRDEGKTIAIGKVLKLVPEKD
T1 sequence (Q96SW2 whole entry): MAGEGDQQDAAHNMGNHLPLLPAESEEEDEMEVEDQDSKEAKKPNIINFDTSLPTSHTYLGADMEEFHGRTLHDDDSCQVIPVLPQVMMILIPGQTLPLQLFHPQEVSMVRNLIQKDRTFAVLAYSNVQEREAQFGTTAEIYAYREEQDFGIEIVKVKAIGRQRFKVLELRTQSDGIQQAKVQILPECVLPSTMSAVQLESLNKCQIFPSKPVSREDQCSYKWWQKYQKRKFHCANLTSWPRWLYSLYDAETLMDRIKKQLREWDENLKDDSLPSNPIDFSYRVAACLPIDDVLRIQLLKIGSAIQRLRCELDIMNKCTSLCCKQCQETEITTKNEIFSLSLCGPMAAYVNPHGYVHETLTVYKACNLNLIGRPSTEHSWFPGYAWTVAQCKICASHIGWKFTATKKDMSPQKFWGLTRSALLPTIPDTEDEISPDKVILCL
T1 sequence (Q16531 2-1140 partner limits assumed): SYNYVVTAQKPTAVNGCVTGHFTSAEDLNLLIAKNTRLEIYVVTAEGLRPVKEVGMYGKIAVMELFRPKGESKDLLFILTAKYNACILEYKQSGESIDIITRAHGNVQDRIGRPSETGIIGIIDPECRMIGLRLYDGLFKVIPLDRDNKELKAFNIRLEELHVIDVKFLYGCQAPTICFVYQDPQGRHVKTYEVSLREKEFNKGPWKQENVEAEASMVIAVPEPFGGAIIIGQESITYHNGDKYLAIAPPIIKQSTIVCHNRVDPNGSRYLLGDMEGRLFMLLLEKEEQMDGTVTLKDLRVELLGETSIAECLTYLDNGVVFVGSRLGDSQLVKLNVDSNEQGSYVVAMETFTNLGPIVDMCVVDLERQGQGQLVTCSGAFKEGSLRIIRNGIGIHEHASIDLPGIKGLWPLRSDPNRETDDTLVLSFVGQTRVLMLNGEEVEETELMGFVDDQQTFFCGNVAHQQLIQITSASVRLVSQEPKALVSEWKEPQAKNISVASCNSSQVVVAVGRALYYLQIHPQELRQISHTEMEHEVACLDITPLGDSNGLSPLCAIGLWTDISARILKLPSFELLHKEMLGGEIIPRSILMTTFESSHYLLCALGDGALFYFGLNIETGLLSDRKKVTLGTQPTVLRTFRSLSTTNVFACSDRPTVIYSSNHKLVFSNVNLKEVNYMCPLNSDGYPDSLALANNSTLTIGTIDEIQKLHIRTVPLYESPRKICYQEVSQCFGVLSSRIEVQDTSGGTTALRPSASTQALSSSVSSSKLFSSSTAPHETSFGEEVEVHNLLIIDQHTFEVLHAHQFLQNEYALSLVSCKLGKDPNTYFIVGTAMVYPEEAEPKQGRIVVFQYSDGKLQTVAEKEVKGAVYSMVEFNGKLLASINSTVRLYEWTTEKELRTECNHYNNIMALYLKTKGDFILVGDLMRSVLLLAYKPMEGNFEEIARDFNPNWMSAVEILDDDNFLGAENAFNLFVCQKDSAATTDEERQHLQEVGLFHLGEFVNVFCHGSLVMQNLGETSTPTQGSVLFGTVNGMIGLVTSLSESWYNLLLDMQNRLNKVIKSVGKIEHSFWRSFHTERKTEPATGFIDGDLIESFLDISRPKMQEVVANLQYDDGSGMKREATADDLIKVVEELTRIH

CN(Cc1ncc(C2CC2)o1)S(=O)(=O)Oc1ccc(Nc2ccc3c(c2)C(=O)N(C2CCC(=O)NC2=O)C3=O)cc1 (stereo not shown) [FL2-14]
treatment time at which GSPT2 degradation is apparent ([1]; 10 µM, time-course in RKO and HEK293T cells): 5 h
GSPT2 degradation in RKO CRBN KO cells ([1]; RKO CRBN KO, 10 μM, 16 h): completely abrogated
degradation of GSPT2 versus GSPT1 (Western blot) ([1]; RKO WT, 10 μM, 16 h): preferentially degraded GSPT2 over GSPT1
concentration range of GSPT2 degradation (dose-response) ([1]; RKO, 0 to 10 μM, 16 h): submicromolar range
EC50 at 72 h ([2]; HEK293T cells): > 10 µM
EC50 at 72 h ([2]; RKO WT cells): > 10 µM
GSPT2 degradation in HEK293T cells [3]: could also be observed in HEK293T cells

Source: PMC10764104, “Discovery of Molecular Glue Degraders via Isogenic Morphological Profiling” (ACS Chemical Biology, 2023)
